# What was measured:
# [1] = target: MIC1; assay: SPR binding of PROTACs to immobilized antibody MIC1; conditions: binding of PROTACs to MIC1, steady-state model
# Procedure: The binding affinities of hit antibodies MIC1 and MIC2 to a diverse set of VH032-based PROTACs (FIGS. 8A-8B) was determined by surface plasmon resonance (SPR) in a Biacore T200 instrument. The running buffer consist of PBS, 0.05% Tween-20, 2% DMSO and temperature and flow rate were set to 30° C. and 30 μL/min, respectively. The assay setup is depicted exemplarily in FIG. 7A. CM5 sensor chips were coated with antibody (=ligand; 2500 RU) using standard EDC/NHS chemistry. PROTACs (=analytes) were serially diluted (1 μM-1.9 nM) in running buffer, injected to the instrument in consecutive runs and were captured by the antibody resulting in an increase of the corresponding SPR response. After the association step (300 s), running buffer was injected for 600 s and the PROTAC dissociated from the antibody leading to signal decrease. After each run, residual bound PROTAC was removed from the immobilized antibody by injection of 10 mM glycine/HCl, pH 1.5 for 2×30 s regenerating the antibody for the next association and dissociation cycle. To compensate for matrix effects, the measured SPR response signal was subtracted by the analyte response to an inactivated (EDC/NHS, ethanol amine) reference surface omitting the ligand. Furthermore, a DMSO solvent correction was performed and analyte response was subtracted by the running buffer signal. […]
# [2] = target: MIC2; assay: SPR binding of PROTACs to immobilized antibody MIC2; conditions: MIC2, 1:1 kinetic binding model
# Procedure: The binding affinities of hit antibodies MIC1 and MIC2 to a diverse set of VH032-based PROTACs (FIGS. 8A-8B) was determined by surface plasmon resonance (SPR) in a Biacore T200 instrument. The running buffer consist of PBS, 0.05% Tween-20, 2% DMSO and temperature and flow rate were set to 30° C. and 30 μL/min, respectively. The assay setup is depicted exemplarily in FIG. 7A. CM5 sensor chips were coated with antibody (=ligand; 2500 RU) using standard EDC/NHS chemistry. PROTACs (=analytes) were serially diluted (1 μM-1.9 nM) in running buffer, injected to the instrument in consecutive runs and were captured by the antibody resulting in an increase of the corresponding SPR response. After the association step (300 s), running buffer was injected for 600 s and the PROTAC dissociated from the antibody leading to signal decrease. After each run, residual bound PROTAC was removed from the immobilized antibody by injection of 10 mM glycine/HCl, pH 1.5 for 2×30 s regenerating the antibody for the next association and dissociation cycle. To compensate for matrix effects, the measured SPR response signal was subtracted by the analyte response to an inactivated (EDC/NHS, ethanol amine) reference surface omitting the ligand. Furthermore, a DMSO solvent correction was performed and analyte response was subtracted by the running buffer signal. The corrected response was fitted by a 1:1 kinetic binding model yielding the on- (kon) and off-rate (koff) of the PROTAC, as well as its dissociation constant (KD).
# [3] = tested on: A431; assay: CellTiter-Glo cell viability assay (VHH-based PAX); conditions: A431, PROTAC alone
# Procedure: (§1) Several cell viability experiments were performed following the procedure described below: Cells were seeded in different media into white cell culture-treated flat and clear bottom multiwell plates followed by overnight incubation in a humid chamber at 37° C. and 5% CO2. Complexation was performed as described in chapter 7.4.
# (§2) The solutions were added to the cells based on the antibody concentration using nanodrop dispension using a Tecan D300e Digital Dispenser and all wells were normalized to the same volume using 0.3% TW20 in PBS pH 7.4 and DMSO to a final solvent concentration of 0.05% DMSO and 0.003% TW20. Incubation was performed at 37° C. at 5% or 10% CO2 dependent on the medium. The assay was developed after 3 days if not otherwise stated using CellTiter-Glo Luminescent Cell Viability Assay as described in the manufacturer's protocol. In brief, the plates were equilibrated to room temperature for 30 minutes. 100 mL CellTiter-Glo Buffer were added to the CellTiter-Glo Substrate Flask and mixed well. 30 μL of the reagent was transferred to each well. After incubation for 3 minutes at room temperature while shaking at 550 rpm, the plate was incubated for another 10 minutes at room temperature. The luminescence was read on an Envision reader from Perkin Elmer. Solvent alone and Bortezomib (1.0E-05 M) served as high control (100% viability) and low control (0% viability), respectively. Raw data were converted into percent cell viability relative to the high and low control, which were set to 100% and 0%, respectively. […] The concentration corresponds to the concentration of PROTACs in the PAX.
# [4] = tested on: HEPG2 cells; assay: CellTiter-Glo cell viability assay (VHH-based PAX); conditions: HEPG2, PROTAC alone
# Procedure: as §1, §2
# [5] = tested on: MDAMB468 cells; assay: CellTiter-Glo cell viability assay (VHH-based PAX); conditions: MDAMB468, PROTAC alone
# Procedure: as §1, §2
# [6] = tested on: NCIN87; assay: CellTiter-Glo cell viability assay (VHH-based PAX); conditions: NCIN87, PROTAC alone
# Procedure: as §1, §2
# [7] = tested on: SKBR3; assay: CellTiter-Glo cell viability assay (VHH-based PAX); conditions: SKBR3, PROTAC alone
# Procedure: as §1, §2
# [8] = tested on: SKOV3; assay: CellTiter-Glo cell viability assay (VHH-based PAX); conditions: SKOV3, PROTAC alone
# Procedure: as §1, §2
# [9] = tested on: A549; assay: CellTiter-Glo cell viability assay (VHH-based PAX); conditions: A549, PROTAC alone
# Procedure: as §1, §2
# [10] = tested on: HCC827; assay: CellTiter-Glo cell viability assay (VHH-based PAX); conditions: HCC827, PROTAC alone
# Procedure: as §1, §2
# [11] = tested on: MCF7; assay: CellTiter-Glo cell viability assay (VHH-based PAX); conditions: MCF7, PROTAC alone
# Procedure: as §1, §2
# [12] = tested on: OVCAR3; assay: CellTiter-Glo cell viability assay (VHH-based PAX); conditions: OVCAR3, PROTAC alone
# Procedure: as §1, §2
# [13] = target: CD33xMIC7; assay: SPR affinity of VHH clone (antibody fusion) to PROTACs; conditions: CD33xMIC7 immobilized, 25° C., read-out: KD [M] for antibody binding to PROTAC
# Procedure: (§3) The kinetic and affinity parameters of protein-PROTAC interactions were evaluated by SPR. The anti-PROTAC VHH clones MIC5-MIC14 were immobilized as CD33 or CLL1 antibody fusion (the manufacturing of fusion proteins and the used linker is described in chapter 7.9) onto a CM5 (Series S) sensor chip via the standard amine coupling procedure, at 25° C. Prior to immobilization, the carboxymethylated surface of the chip was activated with 400 mM 1-ethyl-3-(3-dimethylaminopropyl)-carbodiimide and 100 mM N-hydroxysuccinimide for 7 min. Hit anti-PROTAC VHH as CD33 and CLL1 antibody fusions were diluted to 10 μg/ml in 10 mM Acetate at pH 4.5 and immobilized on the activated surface chip for 7 min, in order to reach 3,000 to 6,000 response units (RU). The remaining activated carboxymethylated groups were blocked with a 10 min injection of 1 M ethanolamine pH 8. HBS-N, which consists of 10 mM HEPES pH 7.4 and 150 mM NaCl, was used as the background buffer during immobilization. PROTACs were prediluted in DMSO, diluted 1:50 in running buffer (12 mM phosphate pH 7.4, 137 mM NaCl, 2.7 mM KCl, 0.05% Tween20, 2% DMSO) and injected at ten different concentrations using two-fold dilution series, from 1 μM to 0.002 μM. A DMSO solvent correction (1%-3%) was performed to account for variations in bulk signal and to achieve high-quality data. Interaction analysis cycles consisted of a 300 sec sample injection (30 μL/min; association phase) followed by 900 sec of buffer flow (dissociation phase).
# (§4) All sensorgrams were processed by first subtracting the binding response recorded from the control surface (reference flow-channel), followed by subtracting of the buffer blank injection from the active flow-channel (target protein immobilized). All datasets were fit to a simple 1:1 Langmuir interaction model to determine the kinetic rate constants. Experiments were performed on a Biacore 8k+ (Cytiva, Uppsala, Sweden) at 25° C. and the interactions were evaluated using the provided Biacore Insight Evaluation software.
# [14] = target: CLL1xMIC7; assay: as above; conditions: CLL1xMIC7 immobilized, 25° C., read-out: KD [M] for antibody binding to PROTAC
# Procedure: as §3, §4
IC50 [3] [nM],IC50 [4] [nM],IC50 [5] [nM],IC50 [7] [nM],IC50 [8] [nM],IC50 [9] [nM],IC50 [10] [nM],IC50 [11] [nM],IC50 [12] [nM],Kd [13] [M],Kd [14] [M],SMILES,Kd [1] [nM],Kd [2] [nM],koff [2],kon [2],IC50 [6] [nM]
,,,,,,,,,,,Cc1ncsc1-c1ccc(CNC(=O)[C@@H]2C[C@@H](O)CN2C(=O)[C@@H](NC(=O)COCCOCCOCCNC(=O)C[C@@H]2N=C(c3ccc(Cl)cc3)c3c(sc(C)c3C)-n3c(C)nnc32)C(C)(C)C)cc1 [MZ1],4.9,0.12,NM/1.30E−04 1/s,NM/1.10E+06 1/Ms,
3,14,7.1,3.6,2.4,17,6.5,1.5,2.8,3.8e-09,< 1e-10,Cc1ncsc1-c1ccc(CNC(=O)[C@@H]2C[C@@H](O)CN2C(=O)[C@@H](NC(=O)COCC(C)(COCCOCCOCCNC(=O)C[C@@H]2N=C(c3ccc(Cl)cc3)c3c(sc(C)c3C)-n3c(C)nnc32)COCCOCCOCCNC(=O)C[C@@H]2N=C(c3ccc(Cl)cc3)c3c(sc(C)c3C)-n3c(C)nnc32)C(C)(C)C)cc1 [SIM1],,,,,4
